Measured values published in publication PMC11879280, “Antimicrobial activity of peptoids against Metallo-β-lactamase-producing Klebsiella pneumoniae, Acinetobacter baumannii, Pseudomonas aeruginosa, and other WHO priority pathogens, including Candida auris” (Journal of Applied Microbiology, 2025).
Where two headings read alike, the source gives them in different places. Square brackets hold non-standard residues; d marks the D form. Ends that are not written are not given here. Peptide text beside a SMILES is read from it. Nspe = C[C@H](NCC(=O)O)c1ccccc1; Nlys = NCCCCNCC(=O)O

Experiments:
[1] = test system: MBL-producing bacteria; assay: Geometric mean MIC, therapeutic index and selectivity ratio, MBL-producing bacteria; assay type: cell-based
Method: (§1) Briefly, bacteria were suspended in cation-adjusted Mueller–Hinton broth (CAMHB; Oxoid, UK) for antibiotics, or MHB (Oxoid, UK) for peptidomimetics to obtain 5 × 10^5 colony forming unit (CFU) ml^−1. […] Positive controls contained only microbes, and blanks contained only media. Microbial suspensions (100 µl) were added to wells, plates wrapped, and incubated at 37°C, 120 rpm for 16–20 h. After incubation, suspensions were removed, log10 diluted, and plated on Trypticase Soya Agar with phosphatidylcholine and Tween 80 to determine minimum bactericidal or fungicidal concentration (MBC or MFC). […] Geometric mean MIC of the peptoids were calculated to evaluate the broad overview of antimicrobial activity across the pathogens.
The test was performed as per the manufacturer’s instructions. Briefly, the strips were applied to a lawn culture of bacteria maintained at 1.5 × 10^8 CFU ml^−1 on Mueller–Hinton agar (Oxoid, UK) and incubated for 20 h at 37°C.
(§2) The therapeutic indices (TIs) of the compounds were calculated with the use of following formula: […]

[2] = test system: C. auris CBS12373; assay: Broth microdilution MIC; assay type: cell-based, Candida auris
[3] = test system: A. baumannii 008
In short: (§3)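 Each strain, at 5 × 10^5 CFU ml^−1, is exposed to compound in Mueller–Hinton-based broth (cation-adjusted for antibiotics) and incubated 16–20 h, 37°C, 120 rpm. Bactericidal concentrations come from plating log10 dilutions of the wells on supplemented agar.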

[4] = test system: S. aureus 105
In short: as §3

[5] = test system: A. baumannii ATCC 19 606
In short: as §3

[6] = test system: En. cloacae 001
In short: as §3

[7] = test system: E. coli 005
In short: as §3

[8] = test system: S. aureus 38
In short: as §3

[9] = test system: K. pneumoniae JIE2713; settings: K. pneumoniae JIE2713
In short: as §3

[10] = test system: En. cloacae 005
In short: as §3

[11] = test system: E. coli 0010
In short: as §3

[12] = test system: A. baumannii 006
In short: as §3

[13] = test system: K. pneumoniae JIE2709; settings: K. pneumoniae JIE2709
In short: as §3

[14] = test system: P. aeruginosa 216
In short: as §3

[15] = test system: K. pneumoniae JIE4212; settings: K. pneumoniae JIE4212
In short: as §3

[16] = test system: P. aeruginosa AR-1270; settings: P. aeruginosa AR-1270
In short: as §3

[17] = test system: horse red blood cells (RBCs); assay: Haemolysis assay; assay type: cell-based; settings: 4 h
Method: The haemolytic activity of the peptidomimetics was performed to determine mammalian cell safety. This assay used horse red blood cells (RBCs) (Sigma–Aldrich, USA) as described previously (Willcox et al. [2008], Chongsiriwatana et al. [2017], Yasir et al. [2019b]). RBCs were washed three times with PBS at 470 g for 5 min. Peptoids (0.5–250 μg ml^−1) were prepared in PBS and added to washed RBCs, then incubated at 37°C for 4 h. After incubation, cells were centrifuged at 1057 g for 10 min, and the supernatant’s OD at 540 nm was measured for lysis. PBS-only RBCs served as the negative control (no haemolysis), and Milli-Q water-treated RBCs as the positive control (100% lysis). Percent haemolysis was calculated as: (ODT − ODNC)/(ODPC − ODNC) × 100, where ODT, ODNC, and ODPC are the absorbances of the test, negative, and positive controls, respectively. This experiment was performed in triplicate.

[18] = test system: Enterobacteriaceae; assay: Geometric mean MIC, therapeutic index and selectivity ratio, Enterobacteriaceae; assay type: cell-based; settings: Enterobacteriaceae (E. coli, K. pneumoniae, and E. aerogenes)
Method: as §1, §2

[19] = test system: ESKAPEE pathogens (all bacteria); assay: Geometric mean MIC, therapeutic index and selectivity ratio, all bacteria; assay type: cell-based; settings: across the 23 ESKAPEE strains
Method: as §1, §2

[20] = test system: C. auris strains; settings: two C. auris strains
Method: as §1, §2

[21] = CBS 12 373, RPMI 1640 with MOPS, 5 × 10^3 CFU ml^−1, ≥90% reduction (≥50% for fluconazole)
[22] = A. baumannii 008, MHB (melimine/Mel4 with 0.2% BSA, 0.01% acetic acid), mean MIC
[23] = S. aureus 105, MHB (melimine/Mel4 with 0.2% BSA, 0.01% acetic acid), mean MIC
[24] = A. baumannii ATCC 19 606, MHB (melimine/Mel4 with 0.2% BSA, 0.01% acetic acid), mean MIC
[25] = En. cloacae 001, MHB (melimine/Mel4 with 0.2% BSA, 0.01% acetic acid), mean MIC
[26] = E. coli 005, MHB (melimine/Mel4 with 0.2% BSA, 0.01% acetic acid), mean MIC
[27] = S. aureus 38, MHB (melimine/Mel4 with 0.2% BSA, 0.01% acetic acid), mean MIC
[28] = MHB (melimine/Mel4 with 0.2% BSA, 0.01% acetic acid), mean MIC
[29] = En. cloacae 005, MHB (melimine/Mel4 with 0.2% BSA, 0.01% acetic acid), mean MIC
[30] = E. coli 0010, MHB (melimine/Mel4 with 0.2% BSA, 0.01% acetic acid), mean MIC
[31] = A. baumannii 006, MHB (melimine/Mel4 with 0.2% BSA, 0.01% acetic acid), mean MIC
[32] = P. aeruginosa 216, MHB (melimine/Mel4 with 0.2% BSA, 0.01% acetic acid), mean MIC
[33] = horse RBCs in PBS, 37°C, OD 540 nm, triplicate, best fit curve
[34] = horse RBCs in PBS, 37°C, value in brackets

Compound	Geometric mean MICMBL [1] [µg/mL]	MIC against C. auris [2, 21] [µg/mL]	MIC of peptidomimetics [4, 23] [µg/mL]	MIC of peptidomimetics [5, 24] [µg/mL]	MIC of peptidomimetics [6, 25] [µg/mL]	MIC of peptidomimetics [7, 26] [µg/mL]	MIC of peptidomimetics [9, 28] [µg/mL]	MIC of peptidomimetics [10, 29] [µg/mL]	MIC of peptidomimetics [11, 30] [µg/mL]	MIC of peptidomimetics [12, 31] [µg/mL]	MIC of peptidomimetics [13, 28] [µg/mL]	MIC of peptidomimetics [14, 32] [µg/mL]	MIC of peptidomimetics [15, 28] [µg/mL]	MIC of peptidomimetics [16, 28] [µg/mL]	HD10 (10% haemolytic dose) [17, 34] [µmol/L]	HD50 (50% haemolytic dose) [17, 34] [µmol/L]	Geometric mean MICE [18] [µg/mL]	Geometric mean MIC, all bacteria [19] [µg/mL]	Geometric mean MIC, all bacteria ([19]; value in brackets) [µM]	Geometric mean MICCA [20] [µg/mL]	also measured
KNKRKRRRRRRGGRRRR [Mel4]	162.1	3.9	62.5	125	250	250	250	250	250	62.5	62.5	250	250	500	> 109	> 109	164.9	149.8	63.8	22.1	MIC of peptidomimetics [3, 22]: 250 µg/mL; MIC of peptidomimetics [8, 27]: 62.5 µg/mL; HD10 (10% haemolytic dose) [17, 33]: > 256 µg/mL; HD50 (50% haemolytic dose) [17, 33]: > 256 µg/mL
TLISWIKNKRKQRPRVSRRRRRRGGRRRR [Melimine]	162.1	3.9	31.3	62.5	125	250	125	250	250	62.5	500	500	250	500	> 67.6	> 67.7	189.5	132.8	35.1	22.1	MIC against C. auris ([2]; CBS 12 373, value in brackets): 1.03 µM; MIC of peptidomimetics [3, 22]: 250 µg/mL; MIC of peptidomimetics ([3]; A. baumannii 008, value in brackets): 66.0 µM; MIC of peptidomimetics ([4]; S. aureus 105, value in brackets): 8.2 µM; MIC of peptidomimetics ([5]; A. baumannii ATCC 19 606, value in brackets): 16.5 µM; MIC of peptidomimetics ([6]; En. cloacae 001, value in brackets): 33.0 µM; MIC of peptidomimetics ([7]; E. coli 005, value in brackets): 66.0 µM; MIC of peptidomimetics [8, 27]: 31.3 µg/mL; MIC of peptidomimetics ([8]; S. aureus 38, value in brackets): 8.2 µM; MIC of peptidomimetics ([9]; value in brackets): 33.0 µM; MIC of peptidomimetics ([10]; En. cloacae 005, value in brackets): 66.0 µM; MIC of peptidomimetics ([11]; E. coli 0010, value in brackets): 66.0 µM; MIC of peptidomimetics ([12]; A. baumannii 006, value in brackets): 16.5 µM; MIC of peptidomimetics ([15]; value in brackets): 66.0 µM; HD10 (10% haemolytic dose) [17, 33]: > 256 µg/mL; HD50 (50% haemolytic dose) [17, 33]: > 256 µg/mL
C[C@@H](c1ccccc1)N(CC(N)=O)C(=O)CN(C(=O)CN(CCCCN)C(=O)CN(C(=O)CN(C(=O)CN(CCCCN)C(=O)CN(C(=O)CN(C(=O)CN(CCCCN)C(=O)CN(C(=O)CN(C(=O)CNCCCCN)[C@@H](C)c1ccccc1)[C@@H](C)c1ccccc1)[C@@H](C)c1ccccc1)[C@@H](C)c1ccccc1)[C@@H](C)c1ccccc1)[C@@H](C)c1ccccc1)[C@@H](C)c1ccccc1 [TM1] (H-[Nlys][Nspe][Nspe][Nlys][Nspe][Nspe][Nlys][Nspe][Nspe][Nlys][Nspe][Nspe]-NH2)	11.0	3.9	3.9	3.9	15.6	15.6	62.5	15.6	15.6	3.9	15.6	15.6	15.6	31.3	4.4	24.6	23.7	13.0	7.2	7.8	MIC against C. auris ([2]; CBS12373): 2.1 µM; MIC of peptidomimetics [3]; 008: 7.8 µg/mL; MIC of peptidomimetics [4]; 105: 2.1 µM; MIC of peptidomimetics ([5]; ATCC 19): 2.1 µM; MIC of peptidomimetics [6]: 8.6 µM; MIC of peptidomimetics [7]; 005: 8.6 µM; MIC of peptidomimetics [8]; 38: 7.8 µg/mL; MIC of peptidomimetics ([9]; value in brackets): 34.4 µM; MIC of peptidomimetics [10]: 8.6 µM; MIC of peptidomimetics [11]; 0010: 8.6 µM; MIC of peptidomimetics [12]; 006: 2.1 µM; MIC of peptidomimetics ([13]; value in brackets): 8.6 µM; MIC of peptidomimetics [14]; 216: 8.6 µM; MIC of peptidomimetics ([15]; value in brackets): 8.6 µM; MIC of peptidomimetics ([16]; value in brackets): 17.2 µM; HD10 (10% haemolytic dose) ([17]; red cells of horse): 8 µg/mL; HD50 (50% haemolytic dose) ([17]; red cells of horse): 44.8 µg/mL
